# Experimental data published in US10422788B2, “Profiling peptides and methods for sensitivity profiling” (Tolero Pharmaceuticals, Inc., priority 2016, dated 2019).
# Legend:
# subject samples = assay: Reference Lab NOXA priming assay on subject samples; format: cell-based, human
# MOLM-13 = settings: published NOXA test results; cited from earlier work
# OCI-AML3 = settings: published NOXA test results; cited from earlier work
# THP-1 = settings: published NOXA test results; cited from earlier work
# HL-60 = settings: published NOXA test results; cited from earlier work
# U-937 = settings: published NOXA test results; cited from earlier work
# KG-1 = settings: published NOXA test results; cited from earlier work
# MV4-11 = settings: published NOXA test results; cited from earlier work
# MOLM-13 cells [1] = assay: Whole cell assay, JC-1 mitochondrial potential, cells lacking digitonin (FIG. 1B); format: cell-based; settings: 100 μM peptide, no digitonin
# Method: Briefly, frozen MOLM-13 and OCI-AML3 cell stocks were rapidly thawed, and cell viability was determined by Trypan Blue exclusion. Cells were washed in PBS and resuspended in DTEB (or MEB) buffer (135 mM Trehalose [or 150 mM Mannitol], 10 mM HEPES, 50 mM KCl, 20 μMI EGTA, 20 μM EDTA, 0.1% BSA, and 5 mM succinate). The profiling peptides and NOXA ([…]; SEQ ID NO:16) were reconstituted in water to make working solutions allowing for final concentrations of: SEQ ID NO:1 (100 μM), SEQ ID NO:14 (100 μM), SEQ ID NO:15 (100 μM), and NOXA (100 μM). […] Profiling peptides, controls, or NOXA (for comparison purposes) were first added to a microplate. Cells (4×10^5) resuspended in DTEB or MEB buffers were then added to a staining solution ([…], 40 μM JC-1, 1 M 2-mercaptoethanol, DTEB or MEB buffer), before being added to the wells of the microplate in the above (for non-digitonin-treated samples, digitonin was not added to the staining solution above). The mixture was then incubated for up to 2 hours at 30° C., in order for cell permeabilization (if needed), delivery of peptides or compounds, and mitochondrial depolarization to occur. Fluorescence signal of each well was assessed using an Envision multilabel plate reader at Ex475/Em530 and Ex530/Em595. […]
# OCI-AML3 cells = assay: Titration of concentrations of profiling peptides, Mcl-1 dependency percentage (JC-1); format: cell-based; settings: profiling peptide at 10 μM; FIG. 2
# Method: Briefly, frozen OCI-AML3 cell stocks were rapidly thawed, and cell viability was determined by Trypan Blue exclusion. Cells were washed in PBS and resuspended in DTEB (or MEB) buffer (135 mM Trehalose [or 150 mM Mannitol], 10 mM HEPES, 50 mM KCl, 20 μM EGTA, 20 μM EDTA, 0.1% BSA, 5 mM succinate). The profiling peptides and NOXA (SEQ ID NO:16) were reconstituted in water to make working solutions allowing for final concentrations of: SEQ ID NO:1 (100 μM), SEQ ID NO:1 (30 μM), SEQ ID NO:1 (10 μM), and NOXA (100 μM). […] Profiling peptides, controls, or NOXA (for comparison purposes) were first added to a microplate. […] Fluorescence signal of each well was assessed using an Envision multilabel plate reader at Ex475/Em530 and Ex530/Em595.
# Statistical Analysis: For each peptide, the Mcl-1 dependency percentage was calculated using the following formula that determines the dependency:
# [formula] Where PC is the fluorescence intensity of the positive control, NC is the fluorescence intensity of the negative control, and Pep is the fluorescence intensity of the peptide at the noted concentration.
# MOLM-13 cells [2] = assay: Addition of ryanodine to the Example 5 assay; format: cell-based; settings: 20 nM Ryanodine; Tat-mediated calcium release from the ER; FIG. 4
# [3] = Sample # 17, subject treated with FLAM, complete response
# [4] = Sample # 18, subject treated with FLAM, complete response
# [5] = Sample # 19, subject treated with FLAM, complete response
substance,measurement,setting,value
"AELPPEFAAQLRKIGDKVYC (NOXA sequence) [standard NOXA BH3 peptide, used for comparison]",Reference Lab NOXA Priming %,subject samples; Sample # 1,14.0%
same,Reference Lab NOXA Result (Pos/Neg),subject samples; Sample # 1,Neg (Concordance based on cutoff of ≥40% MCL-1 Dependency for both methods.)
same,Reference Lab NOXA Priming %,subject samples; Sample # 2,60.0%
same,Reference Lab NOXA Result (Pos/Neg),subject samples; Sample # 2,Pos (Concordance based on cutoff of ≥40% MCL-1 Dependency for both methods.)
same,Reference Lab NOXA Priming %,subject samples; Sample # 3,16.0%
same,Reference Lab NOXA Result (Pos/Neg),subject samples; Sample # 3,Neg (Concordance based on cutoff of ≥40% MCL-1 Dependency for both methods.)
same,Reference Lab NOXA Priming %,subject samples; Sample # 4,0.0%
same,Reference Lab NOXA Result (Pos/Neg),subject samples; Sample # 4,Neg (Concordance based on cutoff of ≥40% MCL-1 Dependency for both methods.)
same,Reference Lab NOXA Priming %,subject samples; Sample # 5,94.4%
same,Reference Lab NOXA Result (Pos/Neg),subject samples; Sample # 5,Pos (Concordance based on cutoff of ≥40% MCL-1 Dependency for both methods.)
same,Reference Lab NOXA Priming %,subject samples; Sample # 6,48.6%
same,Reference Lab NOXA Result (Pos/Neg),subject samples; Sample # 6,Pos (Concordance based on cutoff of ≥40% MCL-1 Dependency for both methods.)
same,Reference Lab NOXA Priming %,subject samples; Sample # 7,0.0%
same,Reference Lab NOXA Result (Pos/Neg),subject samples; Sample # 7,Neg (Concordance based on cutoff of ≥40% MCL-1 Dependency for both methods.)
same,Reference Lab NOXA Priming %,subject samples; Sample # 8,23.5%
same,Reference Lab NOXA Result (Pos/Neg),subject samples; Sample # 8,Neg (Concordance based on cutoff of ≥40% MCL-1 Dependency for both methods.)
same,Reference Lab NOXA Priming %,subject samples; Sample # 9,79.1%
same,Reference Lab NOXA Result (Pos/Neg),subject samples; Sample # 9,Pos (Concordance based on cutoff of ≥40% MCL-1 Dependency for both methods.)
same,Reference Lab NOXA Priming %,subject samples; Sample # 10,38.0%
same,Reference Lab NOXA Result (Pos/Neg),subject samples; Sample # 10,Neg (Concordance based on cutoff of ≥40% MCL-1 Dependency for both methods.)
same,Reference Lab NOXA Priming %,subject samples; Sample # 11,43.3%
same,Reference Lab NOXA Result (Pos/Neg),subject samples; Sample # 11,Pos (Concordance based on cutoff of ≥40% MCL-1 Dependency for both methods.)
same,Reference Lab NOXA Priming %,subject samples; Sample # 12,0.0%
same,Reference Lab NOXA Result (Pos/Neg),subject samples; Sample # 12,Neg (Concordance based on cutoff of ≥40% MCL-1 Dependency for both methods.)
same,Reference Lab NOXA Priming %,subject samples; Sample # 13,0.0%
same,Reference Lab NOXA Result (Pos/Neg),subject samples; Sample # 13,Neg (Concordance based on cutoff of ≥40% MCL-1 Dependency for both methods.)
same,Reference Lab NOXA Priming %,subject samples; Sample # 14,0.0%
same,Reference Lab NOXA Result (Pos/Neg),subject samples; Sample # 14,Neg (Concordance based on cutoff of ≥40% MCL-1 Dependency for both methods.)
same,Reference Lab NOXA Priming %,subject samples; Sample # 15,7.0%
same,Reference Lab NOXA Result (Pos/Neg),subject samples; Sample # 15,Neg (Concordance based on cutoff of ≥40% MCL-1 Dependency for both methods.)
same,Reference Lab NOXA Priming %,subject samples; Sample # 16,7.0%
same,Reference Lab NOXA Result (Pos/Neg),subject samples; Sample # 16,Neg (Concordance based on cutoff of ≥40% MCL-1 Dependency for both methods.)
same,Reference Lab NOXA Priming %,subject samples; [3],10.89%
same,Reference Lab NOXA Result (Pos/Neg),subject samples; [3],Neg (Concordance based on cutoff of ≥40% MCL-1 Dependency for both methods.)
same,Reference Lab NOXA Priming %,subject samples; [4],14.43%
same,Reference Lab NOXA Result (Pos/Neg),subject samples; [4],Neg (Concordance based on cutoff of ≥40% MCL-1 Dependency for both methods.)
same,Reference Lab NOXA Priming %,subject samples; [5],0.0%
same,Reference Lab NOXA Result (Pos/Neg),subject samples; [5],Neg (Concordance based on cutoff of ≥40% MCL-1 Dependency for both methods.)
same,NOXA Priming %,MOLM-13,19.24%
same,NOXA Priming %,OCI-AML3,21.96%
same,NOXA Priming %,THP-1,11.28%
same,NOXA Priming %,HL-60,7.60%
same,NOXA Priming %,U-937,24.35%
same,NOXA Priming %,KG-1,12.39%
same,NOXA Priming %,MV4-11,12.84%
RPEIWMTQGLRRLGDEINAYYARGGGYGRKKRRQRRR (profiling peptide sequence) [SEQ ID NO:15],activity compared to the positive control (FCCP),MOLM-13 cells [1],exceeded the activity of the positive control
RPEIWMTQGLRRLGDEINAYYAR (Exemplary Mcl-1 Binding Domain sequence) [SEQ ID NO:1],Mcl-1 dependency percentage compared to NOXA at 100 μM,OCI-AML3 cells,comparable value
ryanodine,nonspecific dye uptake,MOLM-13 cells [2],prevented nonspecific dye uptake
